Results: article PMC5343874, “High Specific Selectivity and Membrane-Active Mechanism of Synthetic Cationic Hybrid Antimicrobial Peptides Based on the Peptide FV7” (International Journal of Molecular Sciences, 2017)
No end group written: not given here.

Tests used:
[1] = test system: human red blood cells (hRBC); test: Hemolytic activity; assay type: cell-based; settings: 37 °C; for concentration causing 5% hemolysis (minimal hemolytic concentration, MHC): fresh human erythrocytes in PBS pH 7.4, 1 h, absorbance 570 nm, maximal concentration 128 µM, averages of three independent experiments
Experimental: The hemolytic activity of the peptides was evaluated by measuring the amount of released hemoglobin by the lysis of erythrocytes. The measurement was as previously described. Human red blood cells (hRBC) were obtained from healthy donors by the ethics committee of the Northeast Agricultural University Hospital. The fresh blood cells were washed 2–3 times in PBS (pH 7.4) and centrifuged at 1000× g for 5 min at 4 °C, then resuspended in PBS. Briefly, 50 μL of hRBC solution was incubated with 50 μL of different concentrations of each peptide dissolved in PBS in a 96-well microtiter plate. After incubation for 1 h at 37 °C, the mixtures were centrifuged at 1000× g for 5 min at 4 °C and then the supernatant was transferred to another 96-well microtiter plate. The release of hemoglobin was monitored by measurement of the absorbance at 570 nm using a multimode microplate reader (SpectraMax M5, Molecular Devices, San Francisco, CA, USA). The concentration causing 5% hemolysis was defined as the minimal hemolytic concentration (MHC). The control samples for 0% and 100% hemolysis consisted of hRBC in PBS (Ablank) only and in 0.1% Triton X-100 (Atriton), respectively. The percent hemolysis was calculated according to the following equation: % Hemolysis = [(Asample − Ablank)/(Atriton − Ablank)] × 100

[2] = test system: E. coli UB1005 inner membrane; test: Inner membrane permeability (ONPG hydrolysis); assay type: cell-based, Escherichia coli; settings: 1× MIC, absorbance 420 nm, 0–30 min
Experimental: The inner membrane permeability activity against E. coli bacteria was determined by the uptake of ONPG. E. coli UB 1005 cells were cultured to mid-log phase in MHB medium containing 2% lactose at 37 °C, and harvested by centrifugation at 3000× g for 5 min. After washing twice, the cells were diluted to an OD600 of 0.05 with buffer (10 mM PBS, pH 7.4) containing 1.5 mM ONPG. […] The value of OD reflected the ONPG flowing into the cells was measured at 420 nm from 0 to 30 min every two min.

[3] = test system: E. coli ATCC 25922; test: Salt and heat sensitivity (MIC); assay type: cell-based, Escherichia coli; set-up: key to MIC, Control / MIC, NaCl / MIC, KCl / MIC, NH4Cl / MIC, MgCl2 / MIC, ZnCl2 / MIC, FeCl3 / MIC, CaCl2 / MIC, Mix: MIC in µM (peptide serial dilutions 0.5–128 µM); MIC, Heat (100 °C): unit not given beside the values; settings: for MIC, MgCl2: 1 mM MgCl2; for MIC, CaCl2: 2.5 mM CaCl2; for MIC, FeCl3: 4 mM FeCl3; for MIC, KCl: 4.5 mM KCl; for MIC, NH4Cl: 6 mM NH4Cl; for MIC, ZnCl2: 8 mM ZnCl2; for MIC, NaCl: 150 mM NaCl; for MIC, Control: absence of physiological salts; for MIC, Mix: mixture medium with all salts in physiological concentrations; for MIC, Heat (100 °C): peptide incubated at 100 °C for 1 h
Experimental: (§1) Minimum inhibitory concentration (MIC) was determined using the modified standard microtiter dilution method as described previously. The bacteria were incubated overnight at 37 °C, […] at 220 rpm and transferred to new nutrient broth (MHB) until the logarithmic phase of growth. The bacteria were then diluted into 10^5 colony forming units (10^5 CFU/mL) in MHB. The peptides were dissolved and diluted in 0.01% acetic acid and 0.2% bovine serum albumin (BSA). Briefly, serial diluted (0.5–128 µM) peptides were added to sterile 96-well plates in a 50-μL volume of bacteria in MHB mixed with 50 µL. […] The results are expressed as an average of the MICs at least three times.
(§2) The incubation to test for thermal stability occurred at 100 °C for 1 h. After these treatments, the procedures were the same as described above for the MIC assay.

[4] = test system: S. aureus ATCC 29213; test: Salt and heat sensitivity (MIC); assay type: cell-based, Staphylococcus aureus; set-up: key to MIC, FeCl3 / MIC, Mix / MIC, Control / MIC, NaCl / MIC, KCl / MIC, NH4Cl / MIC, MgCl2 / MIC, ZnCl2 / MIC, CaCl2: MIC in µM (peptide serial dilutions 0.5–128 µM); MIC, Heat (100 °C): unit not given beside the values; settings: for MIC, FeCl3: 4 mM FeCl3; for MIC, Mix: mixture medium with all salts in physiological concentrations; for MIC, Heat (100 °C): peptide incubated at 100 °C for 1 h
Experimental: as §1, §2

[5] = test system: S. typhimurium ATCC 7731; assay type: cell-based, Salmonella typhimurium
Experimental: as §1
(§3) E. coli ATCC 25,922, S. typhimurium ATCC 7731, S. typhimurium ATCC 14028, P. aeruginosa ATCC 27853, B. subtilis CMCC 63501, S. aureus ATCC 29213, S. epidermidis ATCC 12228 and E. faecalis ATCC 29212 were obtained from the College of Veterinary Medicine, Northeast Agricultural University (Harbin, China). E. coli UB1005 was kindly provided by Qingsheng Qi (State Key Laboratory of Microbial Technology, Shandong University, Jinan, China). P. Aeruginosa PAO1 was kindly provided by Wengong Yu (State Key Laboratory of School of Medicine and Pharmacy, Ocean University of China, Qingdao, China).

[6] = test system: S. typhimurium ATCC 14028; assay type: cell-based, Salmonella typhimurium
Experimental: as §1, §3

[7] = test system: E. coli ATCC 25922; assay type: cell-based, Escherichia coli
Experimental: as §1, §3

[8] = test system: E. coli UB 1005; assay type: cell-based, Escherichia coli
Experimental: as §1, §3

[9] = test system: P. aeruginosa PAO1; assay type: cell-based, Pseudomonas aeruginosa
Experimental: as §1, §3

[10] = test system: P. aeruginosa ATCC 27853; assay type: cell-based, Pseudomonas aeruginosa
Experimental: as §1, §3

[11] = test system: S. epidermidis ATCC12228; assay type: cell-based, Staphylococcus epidermidis
Experimental: as §1, §3

[12] = test system: S. aureus ATCC 29213; assay type: cell-based, Staphylococcus aureus
Experimental: as §1, §3

[13] = test system: Gram-negative and Gram-positive bacteria; test: MIC across the bacterial panel; assay type: cell-based
Experimental: as §1, §3

[14] = test system: B. subtilis CMCC 63501; assay type: cell-based, Bacillus subtilis
Experimental: as §1, §3

[15] = test system: S. faecalis ATCC 29212; assay type: cell-based
Experimental: as §1, §3

CC[C@H](C)[C@H](NC(=O)CN)C(=O)NCC(=O)N[C@@H](C)C(=O)N[C@H](C(=O)N[C@@H](CC(C)C)C(=O)N[C@@H](CCCCN)C(=O)N[C@H](C(=O)N[C@@H](CC(C)C)C(=O)N[C@H](C(=O)N[C@H](C(=O)NCC(=O)N[C@@H](CC(C)C)C(=O)N1CCC[C@H]1C(=O)N[C@@H](C)C(=O)N[C@@H](CC(C)C)C(=O)N[C@H](C(=O)N[C@@H](CO)C(=O)N[C@@H](Cc1c[nH]c2ccccc12)C(=O)N[C@H](C(=O)N[C@@H](CCCCN)C(=O)N[C@@H](CCCNC(=N)N)C(=O)N[C@@H](CCCCN)C(=O)N[C@@H](CCCNC(=N)N)C(=O)N[C@@H](CCC(N)=O)C(=O)N[C@@H](CCC(N)=O)C(N)=O)[C@@H](C)CC)[C@@H](C)CC)[C@@H](C)O)[C@@H](C)O)C(C)C)C(C)C [ME26, melittin]
concentration giving complete hemolysis ([1]; human erythrocytes, 1 h): greater than 4 µM
inner membrane permeability (ONPG hydrolysis, in words) [2]: highest ability for inner membrane permeability
MIC, MgCl2 [3]: 4
MIC, CaCl2 [3]: 2
MIC, FeCl3 [3]: 2
MIC, KCl [3]: 2
MIC, NH4Cl [3]: 2
MIC, ZnCl2 [3]: 4
MIC, NaCl [3]: 4
MIC, Control [3]: 2
MIC, Mix [3]: 4
MIC, Heat (100 °C) [3]: 2
MIC, MgCl2 ([4]; 1 mM MgCl2): 2
MIC, CaCl2 ([4]; 2.5 mM CaCl2): 4
MIC, FeCl3 [4]: 2
MIC, KCl ([4]; 4.5 mM KCl): 4
MIC, NH4Cl ([4]; 6 mM NH4Cl): 2
MIC, ZnCl2 ([4]; 8 mM ZnCl2): 2
MIC, NaCl ([4]; 150 mM NaCl): 4
MIC, Control ([4]; absence of physiological salts): 8
MIC, Mix [4]: 4
MIC, Heat (100 °C) [4]: 8

AKKFGKAFVGEIM-NH2 [MA]
MIC [5]: >64 µM
MIC [6]: >64 µM
MIC [7]: 32 µM
MIC [8]: >64 µM
MIC [9]: >64 µM
MIC [10]: >64 µM
MIC [11]: >64 µM
MIC [12]: >64 µM
minimum inhibitory concentration [13]: greater than 64 μM
MIC [14]: >64 µM
MIC [15]: >64 µM

FKRIVQRIKDFLR-NH2 [LL]
MIC [5]: 16 µM
MIC [6]: 32 µM
MIC [7]: 16 µM
MIC [8]: 16 µM
MIC [9]: 16 µM
MIC [10]: 8 µM
MIC [11]: 8 µM
MIC [12]: 16 µM
MIC [14]: 16 µM
MIC [15]: 32 µM

FRIRVRV-NH2 [FV7]
hemolysis ([1]; at 128 µM, human erythrocytes, 1 h): approximately 15%
concentration causing 5% hemolysis (minimal hemolytic concentration, MHC) [1]: 4 µM
MIC [5]: 32 µM
MIC [6]: 16 µM
MIC [7]: 16 µM
MIC [8]: 32 µM
MIC [9]: 32 µM
MIC [10]: 16 µM
MIC [11]: 32 µM
MIC [12]: 64 µM
MIC [14]: 16 µM
MIC [15]: 32 µM

FRIRVRVAKKFGKAFVGEIM-NH2 [FV-MA]
hemolytic activity (in words) ([1]; human erythrocytes, 1 h, up to 128 µM): higher hemolytic activity at each concentration when compared to FV7
MIC [5]: 4 µM
MIC [6]: 4 µM
MIC [7]: 8 µM
MIC [8]: 8 µM
MIC [9]: 2 µM
MIC [10]: 8 µM
MIC [11]: 8 µM
MIC [12]: 8 µM
MIC [14]: 4 µM
MIC [15]: 16 µM

FRIRVRVFKRIVQRIKDFLR-NH2 [FV-LL]
concentration causing 5% hemolysis (minimal hemolytic concentration, MHC) [1]: > 128 µM
MIC [5]: 2 µM
MIC [6]: 2 µM
MIC [7]: 1 µM
MIC [8]: 4 µM
MIC [9]: 2 µM
MIC [10]: 4 µM
MIC [11]: 1 µM
MIC [12]: 2 µM
MIC [14]: 4 µM
MIC [15]: 4 µM

FRIRVRVKWKLFKKI-NH2 [FV-CE]
concentration causing 5% hemolysis (minimal hemolytic concentration, MHC) [1]: > 128 µM
MIC [5]: 4 µM
MIC [6]: 4 µM
MIC [7]: 2 µM
MIC [8]: 2 µM
MIC [9]: 2 µM
MIC [10]: 2 µM
MIC [11]: 0.5 µM
MIC, MgCl2 [3]: 2
MIC, CaCl2 [3]: 2
MIC, FeCl3 [3]: 4
MIC, KCl [3]: 2
MIC, NH4Cl [3]: 2
MIC, ZnCl2 [3]: 2
MIC, NaCl [3]: 2
MIC, Control [3]: 2
MIC, Mix [3]: 2
MIC, Heat (100 °C) [3]: 2
MIC [12]: 8 µM
MIC [14]: 1 µM
MIC [15]: 1 µM
MIC, FeCl3 [4]: 4
MIC, Mix [4]: 4
MIC, Heat (100 °C) [4]: 4

KWKLFKKI-NH2 [CE]
MIC [5]: >64 µM
MIC [6]: >64 µM
MIC [7]: 64 µM
MIC [8]: >64 µM
MIC [9]: >64 µM
MIC [10]: >64 µM
MIC [11]: >64 µM
MIC [12]: >64 µM
minimum inhibitory concentration [13]: greater than 64 μM
MIC [14]: >64 µM
MIC [15]: >64 µM
